{"source": "patent US8329702B2", "about": "“Heterocycles useful as modulators of ion channels” (Vertex Pharmaceuticals Incorporated, priority 2005, dated 2012)", "data": [{"target": "T1, NaV1.8 (Homo sapiens, UniProt Q9Y5Y9)", "T1 sequence (Q9Y5Y9 whole entry, looked up)": "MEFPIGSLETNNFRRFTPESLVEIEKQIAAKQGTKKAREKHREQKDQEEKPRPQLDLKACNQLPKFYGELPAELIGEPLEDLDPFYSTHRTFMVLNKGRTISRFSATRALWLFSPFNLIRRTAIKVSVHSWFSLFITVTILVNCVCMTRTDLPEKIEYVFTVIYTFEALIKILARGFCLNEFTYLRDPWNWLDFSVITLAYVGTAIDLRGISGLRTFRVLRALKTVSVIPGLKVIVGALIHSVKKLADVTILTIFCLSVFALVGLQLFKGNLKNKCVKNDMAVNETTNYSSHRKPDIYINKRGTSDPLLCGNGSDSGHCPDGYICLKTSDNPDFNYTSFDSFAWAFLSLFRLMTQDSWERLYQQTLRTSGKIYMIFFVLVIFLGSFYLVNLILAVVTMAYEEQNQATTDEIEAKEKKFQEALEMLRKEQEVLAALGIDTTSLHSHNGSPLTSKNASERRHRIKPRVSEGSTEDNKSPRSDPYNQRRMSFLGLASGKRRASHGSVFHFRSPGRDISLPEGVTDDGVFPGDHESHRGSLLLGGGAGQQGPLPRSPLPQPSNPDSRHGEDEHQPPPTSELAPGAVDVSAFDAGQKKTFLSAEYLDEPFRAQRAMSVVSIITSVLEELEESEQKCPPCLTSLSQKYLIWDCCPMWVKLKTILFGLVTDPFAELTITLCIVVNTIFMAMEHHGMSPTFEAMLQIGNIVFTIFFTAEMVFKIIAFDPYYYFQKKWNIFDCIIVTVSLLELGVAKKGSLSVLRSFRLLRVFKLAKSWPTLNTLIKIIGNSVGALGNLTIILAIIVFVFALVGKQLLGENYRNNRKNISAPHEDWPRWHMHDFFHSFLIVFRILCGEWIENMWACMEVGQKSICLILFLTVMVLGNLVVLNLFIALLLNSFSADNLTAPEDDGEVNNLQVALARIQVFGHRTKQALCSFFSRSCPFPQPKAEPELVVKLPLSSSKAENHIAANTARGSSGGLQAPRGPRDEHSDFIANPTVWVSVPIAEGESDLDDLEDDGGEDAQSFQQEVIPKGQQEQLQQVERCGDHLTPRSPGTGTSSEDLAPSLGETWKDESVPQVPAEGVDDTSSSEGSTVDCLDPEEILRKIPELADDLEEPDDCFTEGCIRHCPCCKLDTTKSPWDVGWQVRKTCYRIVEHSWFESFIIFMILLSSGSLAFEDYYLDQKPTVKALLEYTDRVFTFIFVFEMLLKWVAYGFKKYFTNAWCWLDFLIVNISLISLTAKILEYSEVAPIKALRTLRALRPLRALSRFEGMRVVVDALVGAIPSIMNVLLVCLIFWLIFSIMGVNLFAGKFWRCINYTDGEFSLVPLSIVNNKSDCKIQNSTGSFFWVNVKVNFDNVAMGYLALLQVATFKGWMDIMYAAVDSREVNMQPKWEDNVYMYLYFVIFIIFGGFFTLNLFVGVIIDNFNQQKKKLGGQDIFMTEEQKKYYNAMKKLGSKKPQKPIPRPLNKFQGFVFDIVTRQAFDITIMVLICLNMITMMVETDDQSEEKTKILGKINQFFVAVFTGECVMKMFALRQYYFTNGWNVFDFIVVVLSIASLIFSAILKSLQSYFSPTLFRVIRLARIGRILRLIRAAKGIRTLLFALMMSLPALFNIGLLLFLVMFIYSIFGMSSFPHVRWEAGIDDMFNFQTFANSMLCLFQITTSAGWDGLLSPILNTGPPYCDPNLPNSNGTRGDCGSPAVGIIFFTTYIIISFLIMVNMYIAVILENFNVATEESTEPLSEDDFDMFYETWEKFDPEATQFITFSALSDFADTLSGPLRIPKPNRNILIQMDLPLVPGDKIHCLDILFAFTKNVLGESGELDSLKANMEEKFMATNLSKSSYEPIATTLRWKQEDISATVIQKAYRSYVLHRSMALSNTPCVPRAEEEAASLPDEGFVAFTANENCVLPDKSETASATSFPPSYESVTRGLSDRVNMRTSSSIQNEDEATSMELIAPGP", "assay": "not given", "details": "read-out: TTX IC50; cited from earlier work", "units": {"IC50": "µM"}, "values": [{"smiles": "NC1=N[C@H](O)[C@H]2[C@H]3O[C@]4(O)O[C@@H]([C@@H](O)[C@@]2(N1)[C@@H]4O)[C@]3(O)CO", "note": "[TTX, tetrodotoxin]", "IC50": "> 50"}]}, {"target": "T1, NaV1.8", "assay": "Activity against NaV1.8 channel (Table 3)", "type": "cell-based", "details": "not given", "method": "Compounds of the invention are useful as antagonists of voltage-gated sodium ion channels. Antagonist properties of test compounds were assessed as follows. Cells expressing the NaV of interest were placed into microtiter plates. After an incubation period, the cells were stained with fluorescent dyes sensitive to the transmembrane potential. The test compounds were added to the microtiter plate. The cells were stimulated with either a chemical or electrical means to evoke a NaV dependent membrane potential change from unblocked channels, which was detected and measured with trans-membrane potential-sensitive dyes. Antagonists were detected as a decreased membrane potential response to the stimulus. The optical membrane potential assay utilized voltage-sensitive FRET sensors described by Gonzalez and Tsien (See, Gonzalez, J. E. and R. Y. Tsien (1995) “Voltage sensing by fluorescence resonance energy transfer in single cells” Biophys J 69(4): 1272-80, and Gonzalez, J. E. and R. Y. Tsien (1997) “Improved indicators of cell membrane potential that use fluorescence resonance energy transfer” Chem Biol 4(4): 269-77) in combination with instrumentation for measuring fluorescence changes such as the Voltage/Ion Probe Reader (VIPR®) (See, Gonzalez, J. E., K. Oades, et al. (1999) “Cell-based assays and instrumentation for screening ion-channel targets” Drug Discov Today 4(9): 431-439).\n24 hours before the assay on VIPR, CHO cells endogenously expressing a NaV1.2 type voltage-gated NaV are seeded in 96-well poly-lysine coated plates at 60,000 cells per well. Other subtypes are performed in an analogous mode in a cell line expressing the NaV of interest.\nThe following is an example of how NaV1.3 inhibition activity is measured using the optical membrane potential method#2. Other subtypes are performed in an analogous mode in a cell line expressing the NaV of interest.\nPatch clamp electrophysiology was used to assess the efficacy and selectivity of sodium channel blockers in dorsal root ganglion neurons. Rat neurons were isolated from the dorsal root ganglions and maintained in culture for 2 to 10 days in the presence of NGF (50 ng/ml) (culture media consisted of NeurobasalA supplemented with B27, glutamine and antibiotics). Small diameter neurons (nociceptors, 8-12 μm in diameter) have been visually identified and probed with fine tip glass electrodes connected to an amplifier (Axon Instruments). The “voltage clamp” mode has been used to assess the compound's IC50 holding the cells at −60 mV. In addition, the “current clamp” mode has been employed to test the efficacy of the compounds in blocking action potential generation in response to current injections. The results of these experiments have contributed to the definition of the efficacy profile of the compounds.\nTTX-resistant sodium currents were recorded from DRG somata using the whole-cell variation of the patch clamp technique. Recordings were made at room temperature (˜22° C.) with thick walled borosilicate glass electrodes (WPI; resistance 3-4 MΩ) using an Axopatch 200B amplifier (Axon Instruments). After establishing the whole-cell configuration, approximately 15 minutes were allowed for the pipette solution to equilibrate within the cell before beginning recording. Currents were lowpass filtered between 2-5 kHz and digitally sampled at 10 kHz. Series resistance was compensated 60-70% and was monitored continuously throughout the experiment. The liquid junction potential (−7 mV) between the intracellular pipette solution and the external recording solution was not accounted for in the data analysis. Test solutions were applied to the cells with a gravity driven fast perfusion system (SF-77; Warner Instruments).\nDose-response relationships were determined in voltage clamp mode by repeatedly depolarizing the cell from the experiment specific holding potential to a test potential of +10 mV once every 60 seconds. […]", "units": {"IC50": "µM"}, "values": [{"smiles": "Oc1ccccc1-c1csc(N2CCCCC2)n1", "note": "[Compound 1]", "IC50": "10 to 20"}, {"smiles": "CC(C)COC(=O)N1CCN(c2nc(-c3ccccc3O)cs2)CC1", "note": "[Compound 2]", "IC50": "> 20"}, {"smiles": "COc1ccccc1-c1csc(N2CCN(C(=O)OC(C)(C)C)CC2)n1", "note": "[Compound 3]", "IC50": "10 to 20"}, {"smiles": "CCCCS(=O)(=O)N1CCN(c2nc(-c3ccccc3O)cs2)CC1", "note": "[Compound 4]", "IC50": "> 20"}, {"smiles": "O=C([C@@H]1CCCO1)N1CCN(c2nc(-c3ccccc3O)cs2)CC1", "note": "[Compound 5]", "IC50": "> 20"}, {"smiles": "CC(C)OC(=O)N1CCN(c2nc(-c3ccccc3O)cs2)CC1", "note": "[Compound 6]", "IC50": "> 20"}, {"smiles": "O=C(O[C@H]1CCOC1)N1CCN(c2nc(-c3ccccc3O)cs2)CC1", "note": "[Compound 7]", "IC50": "> 20"}, {"smiles": "COCCOC(=O)N1CCN(c2nc(-c3ccccc3O)cs2)CC1", "note": "[Compound 8]", "IC50": "> 20"}, {"smiles": "O=C(OCc1ccccc1)N1CCN(c2nc(-c3ccccc3F)cs2)CC1", "note": "[Compound 9, Benzyl 4-(4-(2-fluorophenyl)thiazol-2-yl)piperazine-1-carboxylate]", "IC50": "> 20"}, {"smiles": "CC(C)COC(=O)N1CCN(c2nc(-c3ccccc3F)cs2)CC1", "note": "[Compound 10, Isobutyl 4-(4-(2-fluorophenyl)thiazol-2-yl)piperazine-1-carboxylate]", "IC50": "> 20"}, {"smiles": "CC(C)(C)COC(=O)N1CCN(c2nc(-c3ccccc3F)cs2)CC1", "note": "[Compound 11]", "IC50": "> 20"}, {"smiles": "O=C(OC1CCOC1)N1CCN(c2nc(-c3ccccc3F)cs2)CC1", "note": "(stereo not shown) [Compound 12]", "IC50": "> 20"}, {"smiles": "COCCOC(=O)N1CCN(c2nc(-c3ccccc3F)cs2)CC1", "note": "[Compound 13]", "IC50": "> 20"}, {"smiles": "O=C([C@H]1CCCO1)N1CCN(c2nc(-c3ccccc3F)cs2)CC1", "note": "[Compound 14]", "IC50": "> 20"}, {"smiles": "CC(C)[C@@H](O)C(=O)NCC1CCN(c2nc(-c3ccccc3O)ns2)CC1", "note": "[Compound 15]", "IC50": "> 20"}, {"smiles": "CC(C)COC(=O)NC1CCN(c2nc(-c3ccccc3O)ns2)CC1", "note": "[Compound 16, Isobutyl 1-(3-(2-hydroxyphenyl)-1,2,4-thiadiazol-5-yl)piperidin-4-ylcarbamate]", "IC50": "> 20"}, {"smiles": "CC(C)COC(=O)N1CCN(c2nsc(-c3ccccc3O)n2)CC1", "note": "[Compound 17, Isobutyl 4-(5-(2-hydroxyphenyl)-1,2,4-thiadiazol-3-yl)piperazine-1-carboxylate]", "IC50": "> 20"}]}, {"tested_on": "not given", "assay": "not given", "details": "neuropathic pain, modest efficacy; cited from earlier work", "units": {"patients in which it works": "%"}, "values": [{"smiles": "NCC1(CC(=O)O)CCCCC1", "note": "[Gabapentin]", "patients in which it works": 60}]}]}
